Results taken from US6169104A, “Di-aryl ethers and their derivatives as anti-cancer agents” (Large Scale Biology Corporation, priority 1998, dated 2001).

Tests used:
[1] = system: angiogenesis induced by hFGF-B in the CAM; experiment: Chick chorioallantoic membrane (CAM) assay, 14C-proline incorporation into collagenous protein; assay type: in vivo, chick embryo; settings: for effect in the CAM assay: summary of the two experiments
Procedure: BTO-964 [methyl 3,5-diiodo-4(4'-methoxyphenoxy) benzaldehyde], and BTO-967 [methyl 3,5-diiodo-4(4'-methoxyphenoxy)-thiobenzoate] were tested in the CAm assay. The endpoint of the CAM assay was a quantiative determination of basement membrane biosynthesis by measuring the incorporation of ^14 C-proline into Type IV collagenous protein.
The CAM assay involves the development of live chick embryos in Petri dishes under special sterile conditions. Therefore, only limited numbers of embryos can be used for evaluation of compounds in a single experiment. BTO-964 and BTO-967 was tested in separate assays. A known angiogenesis inhibitor, 2-methoxyestradiol (2-ME), was used as the positive control, and human fibroblast growth factor (hFGF) was used to induce angiogenesis in the CAM.
For testing, a minimum amount of acetone-methanol (1:1) was added to the test compounds for sterilization. The acetone-methanol mixture was then evaporated to dryness in a sterile hood. The compounds were dissolved in dimethyl sulfoxide (DMSO) first and then diluted with saline containing methylcellulose. The final concentrations were 2% DMSO and 0.5% methylcellulose. all test solutions were added to each CAM in […] aliquots.
Fresh fertile eggs were incubated for three days in a standard egg incubator. On Day 3, eggs were cracked under sterile conditions and embryos were placed in 20×100 mm plastic Petri dishes and cultivated at 37° C. in an embryo incubator with a water reservoir on the bottom shelf. Air was continuously bubbled into the water reservoir by using a small pump so that the humidity in the incubator was kept constant. Observations were made daily to ensure that all embryos were healthy. Dead or unhealthy embryos were removed from the incubator immediately to avoid contamination. On Day 9, a sterile silicone ring cup was placed on each CAM and 0.5 mCi of ^14 C-proline with or without the test compound plus 2.5 ng of hFGF dissolved in saline containing 0.5% methylcellulose was delivered into each ring cup in a sterile hood. 2-ME was tested in parallel to serve as a reference compound. After addition of test materials, the embryos were returned to the incubator and cultivation continued. On Day 12, all embryos were transferred to a cold room at 4-10° C.
Using the procedure outlined in Maragoudakis, et al., (1989) J. Pharm. Exp. Ther. 251:679-682, the embryos were placed on ice and a piece of CAM 10 mm in diameter was cut off under each ring cup and placed in a separate tube. To each tube was added 1.0 ml of phosphate-buffered saline (PBS, pH 7.3) containing 0.11 mg cycloheximide and 0.17 mg dipyridyl. The tubes were placed in a boiling water bath for 10 min and then cooled to room temperature. The PBS in each tube was discarded after centrifugation at 3000×G for 10 min. The CAM residue was washed once with 3 ml of 15% TCA and then three times with 3 ml of 5% TCA. Centrifugation was carried out as described above between each washing. At this point all non-protein bound radioactivity was removed, and the CAM containing the newly synthesized ^14 C-collagenous protein was suspended in 0.9 ml of 0.1 N NaOH and 1.1 ml of HEPES buffer at pH 7.4. The pH of the sample was neutralized with 0.8 N HCl, using phenol red as indicator.
To digest the ^14 C-collagenous protein, 7.5 units of collagenase and 500 nmol of calcium chloride in […] of HEPES buffer was added to the above samples, and mixtures were incubated at 37° C. for 4 h. The reaction was stopped by adding 1.0 ml of 20% TCA containing 5 mg of tannic acid into each tube. After vortex mixing, the samples were centrifuged at 3000×G for 10 min. An aliquot of the clear supernatant was taken for scintillation counting to quantitate the radiolabeled tripeptides corresponding to basement membrane collagen and other collagenous materials synthesized by the CAM from ^14 C-proline. The CAM pellets in each tube were solubilized in 0.5 ml of 1.0 N NaOH by boiling in a water bath for 5 min. […]

[2] = system: Human leukemia (HL60) cells; experiment: In vitro metabolism in human leukemia cells with and without rat liver S9; assay type: cell-based; settings: for effect of metabolism by S9 on activity: 4 hr incubation with vs without rat liver S9, cells counted 3 days later (FIG. 2)
Procedure: FIG. 2 illustrates the in vitro metabolism of BTO-956, 964, 966, and 967 in human leukemia cells. In this experiments, human leukemia cells (HL60) were incubated for 4 hours in the presence of BTO-956, BTO-964, BTO-966 or BTO-967, with (closed symbols) and without (open symbols) rat liver microsome fraction S9. Following the 4 hr exposure to drug and S9, the cells were rinsed and replated at a density of 2×10^5 cells per ml, and counted 3 days later.
To test for either of these possibilities, the compounds, i.e., BTO-956, BTO-964, BTO-966 and BTO-967, were incubated with a microsomal enzyme fraction, referred to as S9.
Human leukemia (HL60) cells were used to evaluate drug metabolism. Exposure to the test article was performed in the presence and absence of S9, prepared from the liver of adult male rats given a single intraperitoneal injection of Arachlor 1254 (500 mg/kg). The S9 consisted of the 9000×G supernatant of liver homogenized in 0.25 M sucrose-100 mM phosphate buffer (pH 7.4) (Molecular Toxicology, Inc.). Cofactors were 1 mM NADP and 5 mM sodium isocitrate. On the day of exposure, cultures of cells, with or without the metabolism mixture, were incubated for 4 hours in RPMI containing 5% FBS and graded doses of BTO956, 964, 966, or 967. The test agents were prepared in serial dilutions from 10 mM stock solutions in DMSO yielding a dose range 100 μM, 50 μM, 25 μM, 10 μM and 5 μM concentrations and a final DMSO concentration of 1%. In each case, cells were maintained at 37° C. under 5 percent CO2 in air. The experiments were conducted in 6-well tissue culture plates (Falcon) with an initial seeding density of 2×10^6 cells per well in 2 ml aliquots. The test compounds were added immediately to the medium in duplicate cultures. Treatment solution was removed by a series of low-speed centrifugations to pellet the cells, followed by removal of the supernatant and resuspension of cells in fresh RPMI containing 10% FBS.

Row | SMILES | % Inhibition ([1]; 8.3 μg/CAM, BTO-964 experiment) [%] | 14C-Proline Incorporated into Collagenous Protein (cpm/mg protein) (mean ± S.E.) ([1]; 8.3 μg/CAM, BTO-964 experiment, control 11200 ± 829) [cpm/mg_protein] | % Inhibition ([1]; 25 μg/CAM, BTO-964 experiment) [%] | 14C-Proline Incorporated into Collagenous Protein (cpm/mg protein) (mean ± S.E.) ([1]; 25 μg/CAM, BTO-964 experiment, control 11200 ± 829) [cpm/mg_protein] | % Inhibition ([1]; 75 μg/CAM, BTO-964 experiment) [%] | 14C-Proline Incorporated into Collagenous Protein (cpm/mg protein) (mean ± S.E.) ([1]; 75 μg/CAM, BTO-964 experiment, control 11200 ± 829) [cpm/mg_protein] | effect in the CAM assay [1] | toxicity to HL60 cells ([2]; 4 hr exposure (FIG. 2)) | effect of metabolism by S9 on activity [2] | % Inhibition ([1]; 8.3 μg/CAM, BTO-967 experiment) [%] | 14C-Proline Incorporated into Collagenous Protein (cpm/mg protein) (mean ± S.E.) ([1]; 8.3 μg/CAM, BTO-967 experiment, control 6300 ± 696) [cpm/mg_protein] | % Inhibition ([1]; 25 μg/CAM, BTO-967 experiment) [%] | 14C-Proline Incorporated into Collagenous Protein (cpm/mg protein) (mean ± S.E.) ([1]; 25 μg/CAM, BTO-967 experiment, control 6300 ± 696) [cpm/mg_protein] | % Inhibition ([1]; 75 μg/CAM, BTO-967 experiment) [%] | 14C-Proline Incorporated into Collagenous Protein (cpm/mg protein) (mean ± S.E.) ([1]; 75 μg/CAM, BTO-967 experiment, control 6300 ± 696) [cpm/mg_protein]
1 | COc1ccc(Oc2c(I)cc(C=O)cc2I)cc1 [BTO-964, 3,5-Diiodo-4-(4'-methoxyphenoxy)benzadehyde] | 15 | 9526 ± 1492 | 27 | 8121 ± 1096 | 10 | 10076 ± 928 | antiangiogenic effect | more toxic to HL60 cells than is BTO-956 | more resistant to metabolic degradation |  |  |  |  |  | 
2 | COC(=S)c1cc(I)c(Oc2ccc(OC)cc2)c(I)c1 [BTO-967, methyl 3,5-diiodo-4-(4'-methoxyphenoxy)thiobenzoate] |  |  |  |  |  |  | antiangiogenic effect |  | activated to more cytotoxic products | 13 | 5222 ± 692 | 3 | 6165 ± 1288 | 11 | 5581 ± 1182
